Values of other authors in US20080306035A1, “Methods and Compositions for Treating Female Infertility Using Clomiphene” (priority 2005, published 2008).
Structures can show the parent of a compound that is named as a salt.

Key:
[1] = in vivo

Molecule	patients treated who achieve pregnancy (patients treated with clomiphene citrate, London et al. 1999)	ovulation, share of patients (up to 100 mg clomiphene citrate for 5 days per cycle)	effect on uterine blood flow [1]
CCN(CC)CCOc1ccc(C(=C(Cl)c2ccccc2)c2ccccc2)cc1 [clomiphene citrate]	25-40%	about 70%	–
cis-clomiphene	–	–	raise uterine blood flow
trans-clomiphene	–	–	raise uterine blood flow
